# According to patent publication US20130303564A1, “METHOD FOR TREATING A NEURODEGENERATIVE DISORDER” (RUSH UNIVERSITY MEDICAL CENTER, priority 2012, published 2013):
# What was measured:
# [1] = test system: BV-2 microglial cells; test: Superoxide production in microglial cells; type: cell-based, mouse; details: co-incubated with NaPB 6 h, then LPS 10 min
# Excerpt: Results represent three independent experiments.
# Superoxide measurements: Superoxide production was detected by LumiMax™ Superoxide Anion Detection Kit (Stratagene) as described by us (30).
# [2] = test system: NF-κB; test: Transcriptional activity of NF-κB (PBIIX-Luc reporter) in BV-2 microglial cells; type: cell-based, mouse; details: co-incubated with NaPB 6 h
# Description: Transcriptional activity of NF-κB: Transcriptional activity of NF-κB was assayed. […] After 24 h of transfection, […], and firefly and Renilla luciferase activities were recorded in a TD-20/20 Luminometer (Turner Designs, Sunnyvale, Calif.) by analyzing total cell extract according to standard instructions provided in the Dual Luciferase Kit (Promega), Relative luciferase activity of cell extracts was typically represented as (firefly luciferase value/Renilta luciferase value)×10^−3.
# [3] = test system: primary mouse microglia; test: LPS-induced NO (nitrite) production in primary mouse microglia; type: cell-based; details: other HDAC inhibitors, different concentrations, 6 h preincubation, LPS 24 h
# Description: Primary mouse microglia were treated with different concentrations of NaPB for 6 h followed by stimulation with LPS under serum-free condition. After 24 h of stimulation, concentrations of nitrite were measured in supernatants (A) and the level of iNOS protein was monitored in cells by Western blot (B). […] After 5 h of stimulation, the expression of iNOS mRNA was monitored by semi-quantitative RT-PCR (C). Cells preinctibated with different concentration of trichostatin A (TSA) and sodium butyrate (NaBu) for 6 h were stimulated with LPS for 24 h under serum-free condition followed by monitoring the level of nitrite in supernatants (p). […] Primary human astroglia isolated from fetal brain tissues were treated with different concentrations of NaPB for 6 h followed by stimulation with IL-1β under serum-free condition. After 48 h of stimulation, concentrations of nitrite (E) were measured in supernatants. Human astroglia plated at 70-80% confluence in 12-well plates were co-transfected with 0.25 μg of phiNOS(7.2)Luc and 12.5 ng of pRL-TK using the Lipofectamine-Plus (Invitrogen). Twenty-four h after transfection, cells received NaPB. After 6 h of incubation, cells were stimulated with IL-1β (20 ng/ml) for 12 h. Firefly (ff-Luc) and Renilla (r-Luc) luciferase activities were obtained by analyzing the total cell extract (F).
# Activated microglia and astroglia are known to produce excessive amount of NO having the potential of damaging neurons in neurodegenerative disorders. We investigated the effect of NaPB on the expression of iNOS in microglia. LPS is a prototype inducer of various proinflammatory molecules in different cell types including mouse microglia. Therefore, primary mouse microglia preincubated with different doses of NaPB for 6 h were stimulated with LPS under serum-free condition. […] We used trichostatin A (TSA) and sodium butyrate (NaBu) for this purpose.
# Isolation of Mouse Microglia: Microglia were isolated from mixed glial cultures. Briefly, on day 7-9, the mixed glial cultures were washed three times with Dulbecco's modified Eagle's medium/F-12 and subjected to shaking at 240 rpm for 2 h at 37° C. on a rotary shaker. The floating cells were washed and seeded on to plastic tissue culture flasks and incubated at 37° C. for 1 h. The attached cells were seeded onto new plates for further studies. […] Mouse BV-2 microglial cells (kind gift from Virginia Bocchini of Universityof Perugia) were also maintained and induced as indicated above.
# [4] = test system: cholesterol; test: Serum cholesterol in male C57/BL6 mice; type: in vivo, mouse; details: 1 mg/kg body wt/d via gavage, 7 d
# Description: Mice (6-8 wk old) were treated with NaPB (200 mg/kg body wt/d) and pravastatin (1 mg/kg body wt/d) separately via gavage for 7 d followed by quantification of cholesterol in serum using a simple fluorometric method.
# Intermediates of the mevalonate pathway play a role in the expression of iNOS and proinflammatory cytokines in glial cells. End product of the mevalonate pathway is cholesterol and therefore, we investigated if NaPB had any effect on the level of cholesterol in vivo in mice.
# Assay of cholesterol in serum: Total cholesterol was quantified irr serum by using an Amplex Red Cholesterol Assay kit from Invitrogen. Briefly, cholesterol was oxidized by cholesterol oxidase to yield H2O2, which then reacted with 10-acetyl-3,7 dihydroxyphenoxazine (Amplex Red). In the presence of horseradish peroxidase (HRP), this Amplex Red:H2O2 complex produced highly fluorescent resorufin, which was detected by fluorometry.
compound,measurement,setting,value
CC(C)CCC[C@@H](C)[C@H]1CC[C@H]2[C@@H]3CC=C4C[C@@H](O)CC[C@]4(C)[C@H]3CC[C@]12C [cholesterol],effect on NaPB-mediated inhibition of superoxide production,[1],had no effect
same,effect on NaPB-mediated inhibition of NF-κB activation,[2],had no effect
"CC(C)=CCC/C(C)=C/CC/C(C)=C/CC/C(C)=C/COP(=O)(O)OP(=O)(O)O [GGPP, geranylgeranyl pyrophosphate]",effect on NaPB-mediated inhibition of superoxide production,[1],abolished the inhibitory effect of NaPB
same,effect on NaPB-mediated inhibition of NF-κB activation,[2],abrogated the inhibitory effect of NaPB
"CC(/C=C/C(=O)NO)=C\[C@@H](C)C(=O)c1ccc(N(C)C)cc1 [TSA, trichostatin A]",effect on LPS-induced production of NO,[3],attenuated
CC[C@H](C)C(=O)O[C@H]1C[C@H](O)C=C2C=C[C@H](C)[C@H](CC[C@@H](O)C[C@@H](O)CC(=O)O)[C@H]21 [pravastatin],reduction of the level of cholesterol in serum,[4],~29%
"CCCC(=O)[O-].[Na+] [NaBu, sodium butyrate]",effect on LPS-induced production of NO,[3],stimulated
CC(O)(CCO)CC(=O)O (centres unmarked) [mevalonate],effect on NaPB-mediated inhibition of superoxide production,[1],abolished the inhibitory effect of NaPB
same,effect on NaPB-mediated inhibition of NF-κB activation,[2],abrogated the inhibitory effect of NaPB
COC1=C(OC)C(=O)C(C/C=C(\C)CC/C=C(\C)CC/C=C(\C)CC/C=C(\C)CC/C=C(\C)CC/C=C(\C)CC/C=C(\C)CC/C=C(\C)CC/C=C(\C)CCC=C(C)C)=C(C)C1=O [coenzyme Q],effect on NaPB-mediated inhibition of superoxide production,[1],had no effect
same,effect on NaPB-mediated inhibition of NF-κB activation,[2],had no effect
CC(C)(CO[P@@](=O)(O)O[P@@](=O)(O)OC[C@H]1O[C@@H](n2cnc3c(N)ncnc32)[C@H](O)[C@@H]1OP(=O)(O)O)[C@@H](O)C(=O)NCCC(=O)NCCSC(=O)C[C@@](C)(O)CC(=O)O [HMG-CoA],effect on NaPB-mediated inhibition of superoxide production,[1],abolished the inhibitory effect of NaPB
same,effect on NaPB-mediated inhibition of NF-κB activation,[2],abrogated the inhibitory effect of NaPB
"CC(C)=CCC/C(C)=C/CC/C(C)=C/COP(=O)(O)OP(=O)(O)O [FPP, farnesyl pyrophosphate]",effect on NaPB-mediated inhibition of NF-κB activation,[2],abrogated the inhibitory effect of NaPB
